Laboratory results as given in article PMC9655717, “New Molecules of Diterpene Origin with Inhibitory Properties toward α-Glucosidase” (International Journal of Molecular Sciences, 2022).
≈ marks a conversion by molar mass, not a printed value. Where two headings read alike, the source gives them in different places.

What was measured:
[1] = test system: Escherichia coli (ATCC 25922); test: Antimicrobial broth microdilution; type: cell-based; settings: ATCC25922, E. coli
Protocol: (§1) Table S2. The result of antimicrobial tests of compounds 38, 45, 48 and 50.
(§2) Gram (+) strains Gram (-) strains Fungi
(§3) Compound Values (µg/ml) S. aureus B. L. S. E. P. C. subtilis fermentum enterica coli aeruginosa albican
(§4) The antimicrobial activity was determined by broth microdilution method as reported by. Broth dilution testing is one of the common methods used for determination of the MICs and IC50. The compounds are examined for visible bacterial growth as evidenced by turbidity. […]
(§5) S1.5. In vitro antimicrobial activity study of compounds 38, 45, 48 and 50 The Gram-positive bacteria: Bacillus subtilis (ATCC 6633), Lactobacillus fermentum (N4), Staphylococcus aureus (ATCC 13709); Gram -negative bacteria: Escherichia coli (ATCC 25922), Pseudomonas aeruginosa (ATCC 15442), Salmonella enterica; Yeast: Candida albicans (ATCC 10231) were obtained from American Type Culture Collection. The bacterial […]
(§6) Sabourand 2% dextrose broth, were purchased from Merck. […]
(§7) remaining at –80 0 C. Before assay, they were activated by culture medium and, adjusted the concentration to 5x10^5 CFU/mL. 10 μL of each concentration of each test […]
(§8) further incubated at 37 °C within 16-24h. The experiment was triplicated. Positive […]
(§9) medium without bacteria as a negative control. Ampicillin was used as a reference […]
(§10) inhibiting 50% the visible growth of the tested microorganisms. MIC, IC50 values are typically expressed as molar concentration. […]
(§11) treated with sample different concentrations on 96-well plates. Untreated cells represented the controls. […]
(§12) crystals are visible. Remove MTT and add DMSO solution (100 μL). The optical density […]
(§13) are evaluated to have cytotoxic activity.

[2] = test system: Candida albicans (ATCC 10231); test: Antimicrobial broth microdilution; type: cell-based; settings: ATCC10231, C. albican
Protocol: as §1, §2, §3, §4, §5, §6, §7, §8, §9, §10, §11, §12, §13

[3] = test system: Staphylococcus aureus (ATCC 13709); test: Antimicrobial broth microdilution; type: cell-based; settings: ATCC13709, S. aureus
Protocol: as §1, §2, §3, §4, §5, §6, §7, §8, §9, §10, §11, §12, §13

[4] = test system: Pseudomonas aeruginosa (ATCC 15442); test: Antimicrobial broth microdilution; type: cell-based; settings: ATCC15442, P. aeruginosa
Protocol: as §1, §2, §3, §4, §5, §6, §7, §8, §9, §10, §11, §12, §13

Salmonella enterica = test: Antimicrobial broth microdilution; type: cell-based; settings: S. enterica
Protocol: as §1, §2, §3, §4, §5, §6, §7, §8, §9, §10, §11, §12, §13

[5] = test system: Bacillus subtilis (ATCC 6633); test: Antimicrobial broth microdilution; type: cell-based; settings: ATCC6633, B. subtilis
Protocol: as §1, §2, §3, §4, §5, §6, §7, §8, §9, §10, §11, §12, §13

[6] = test system: Lactobacillus fermentum (N4); test: Antimicrobial broth microdilution; type: cell-based; settings: L. fermentum
Protocol: as §1, §2, §3, §4, §5, §6, §7, §8, §9, §10, §11, §12, §13

[7] = target: T1, yeast α-GLy (α-glucosidase, Sigma G0660) (Saccharomyces cerevisiae, UniProt P53341); test: biochemical; type: biochemical; settings: yeast α-glucosidase; for IC50: 37°C, pH 6.8
T1 construct: purchased Sigma G0660
Protocol: S1. Materials and Methods […]
glucosidase inhibition assay. α-Glucosidase enzyme inhibition assay was carried out in a 96-well microplate. The method’s principle based on the hydrolyzed reaction of 4-nitrophenyl-α-D-glucopiranoside with α-glucosidase enzyme into yellow 4- […]
p-Nitrophenyl α-D-Glucoside a- Gl ucosidas e α-D-Glucose + p- Nitrophenol α-Glucosidase inhibitory activity assay was performed following the modified method of Pistia Brueggeman and Hollingsworth with slight modification. Quinopimaric […]
concentrations of 256, 64, 16, 4 and 1 µg/mL. In a 96-well plate, a reaction mixture containing 20 μL of phosphate buffer (100 mM; pH 6.8), 20 μL of α-glucosidase (0.3 U/mL, Sigma G0660) (this concentration was determined by a series of α-glucosidase […]
linearity between the enzyme concentration and the absorbance of yellow color mixture after reaction which was approximately 5-fold higher than the back ground and at least […]
concentrations was pre-incubated for 10 min at 37°C. Then 20 μL of […] p-nitrophenyl α-D-glucopyranoside (Sigma N1377) was added to the mixture as a substrate. After further incubation at 37°C for 30 min, the reaction was stopped by adding 80 μL of 0.1 […]
solution were prepared using the phosphate buffer […]; pH 6.8. […]
as a positive control and water as negative control. The yellow color produced was quantitated by colorimetric analysis and reading the absorbance at 410 nm. Each experiment was performed in triplicates, along with appropriate blanks. The solvent DMSO was use as negative control to evaluate its effect on α-glucosidase activity. […]
or substrate in negative control. Back ground was determined by volume of buffer as […]
The % inhibition has been obtained using the formula:
% inhibition = {Absorbance (control) –Absorbance (sample)}/Absorbance (control) IC50 value is defined as the concentration of samples inhibiting 50% of α-glucosidase activity under the stated assay conditions. […]

[8] = DPPH radical scavenging assay; settings: DPPH 0.1 mM in methanol, 25°C, 30 min
Protocol: DPPH radical scavenging assay as described by Ha. The hydrogen atom donating ability of the plant extractives was determined by the decolorization of methanol solution of 2,2-diphenyl-1-picrylhydrazyl (DPPH). DPPH produces purple color in methanol solution and fades to shades of yellow color in the presence of antioxidants. […]
DPPH (0.1 mM) was diluted in methanol. 200 μL of this solution was added to 1.3 μL of various concentrations of compounds in DMSO (256.0, 64.0, 16.0, and 4.0 μg/mL). The mixture was performed by a 96-well plate at 25 °C in 30 min. Then, absorbance was determined by Epoch™ Microplate Spectrophotometer (at 517 nm). The percentage of DPPH quenching activity was computed by the following formula:
Inhibitory percentage SC (%) = [(Ao - A1)/Ao] × 100. where AO was defined as the absorbance of control reaction, and A1 represented for the absorbance in the presence of test or standard sample. Each experiment was repeated three times. Quercetin was used as a reference compound. […]

MTT cytotoxicity assay = settings: human
Protocol: The cytotoxic activity of compounds was evaluated against four cancer cell lines KB, Hep-G2, Lu-1 and MCF-7, using colorimetric MTT assay. […]
MTT assay was used to determine the cytotoxic activity of compounds with human cancer cell lines acquired from the American Type Culture Collection (ATCC): epidermoid carcinoma (KB, ATCC number CCL-17), hepatocellular carcinoma (HepG2, ATCC number HB-8065), lung adenocarcinoma LU-1 (ATCC number HTB - 57TM), breast adenocarcinoma MCF-7 (ATCC number HTB - 22TM. Cells were cultured in medium DMEM supplemented with 10% Fetal bovine serum (FBS), 1% Penicillin and Streptomycin and 1% L-glutamine, under a humidified atmosphere of 5% CO2 at 37°C.
Compounds were dissolved in DMSO at 40 mg/mL and a series of dilutions for each compound was prepared to final concentrations of 256, 64, 16, 4 and 1 μg/mL. Cells were separated with trypsin and seeded in each well with 3 x10^4 cells per ml and were treated with sample different concentrations on 96-well plates. Untreated cells represented the controls. After 72h of treatment, an MTT solution (10 μl, 5 mg/mL) of phosphate buffer was added to each well for 4 h until intracellular purple formazan crystals are visible. Remove MTT and add DMSO solution (100 μL). The optical density of the solution was determined by Epoch™ Microplate Spectrophotometer at 540 nm. The inhibition ratio was calculated based on the optical densities from the three replicate […]
as §13

[9] = IC50 ± SE, α-glucosidase inhibition

T1 sequence (P53341 whole entry): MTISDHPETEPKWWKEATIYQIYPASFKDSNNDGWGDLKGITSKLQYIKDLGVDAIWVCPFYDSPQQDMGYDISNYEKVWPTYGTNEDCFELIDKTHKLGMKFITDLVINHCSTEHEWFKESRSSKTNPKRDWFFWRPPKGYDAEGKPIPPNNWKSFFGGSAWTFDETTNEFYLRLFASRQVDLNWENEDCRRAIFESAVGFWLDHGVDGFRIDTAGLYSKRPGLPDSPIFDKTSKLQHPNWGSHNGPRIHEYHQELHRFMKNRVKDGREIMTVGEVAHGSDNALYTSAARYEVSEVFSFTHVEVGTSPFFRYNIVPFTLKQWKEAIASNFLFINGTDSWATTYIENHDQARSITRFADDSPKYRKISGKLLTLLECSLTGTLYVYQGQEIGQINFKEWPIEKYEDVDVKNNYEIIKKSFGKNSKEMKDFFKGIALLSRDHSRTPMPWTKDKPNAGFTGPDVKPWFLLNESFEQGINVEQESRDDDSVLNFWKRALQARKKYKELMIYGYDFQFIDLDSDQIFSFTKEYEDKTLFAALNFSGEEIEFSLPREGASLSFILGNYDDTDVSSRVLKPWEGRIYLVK

Cc1[nH]c2c3c(c(O)cc2c1CO)[C@H]1C[C@@H]2[C@@]4(C)CCC[C@@](C)(CO)[C@@H]4CC[C@@]32C=C1C(C)C [Compound 38]
IC50 [1]: > 256 µg/mL | MIC [1]: > 256 µg/mL | IC50 [2]: > 256 µg/mL | MIC [2]: > 256 µg/mL | IC50 [3]: 34.3 ± 1.75 µg/mL (≈ 74 µM) | MIC [3]: > 256 µg/mL | IC50 [4]: > 256 µg/mL | MIC [4]: > 256 µg/mL | IC50 (Salmonella enterica): > 256 µg/mL | MIC (Salmonella enterica): > 256 µg/mL | IC50 [5]: 102 ± 7.21 µg/mL (≈ 221 µM) | MIC [5]: 256 µg/mL (≈ 552 µM) | IC50 [6]: > 256 µg/mL | MIC [6]: > 256 µg/mL | IC50 ([7]; read-out: IC50 ± SE, α-glucosidase inhibition): 0.39 ± 0.03 µM | IC50 values, antioxidant test (DPPH) [8]: 227.76 ± 4.9 µg/mL (≈ 491 µM) | IC50 at 72 h (MTT cytotoxicity assay; Hep-G2 hepatocellular carcinoma cells (ATCC HB-8065)): 50.8 ± 1.2 µg/mL (≈ 110 µM) | IC50 at 72 h (MTT cytotoxicity assay; KB epidermoid carcinoma cells (ATCC CCL-17)): 39.5 ± 1 µg/mL (≈ 85.3 µM) | IC50 at 72 h (MTT cytotoxicity assay; Lu-1 lung adenocarcinoma cells (ATCC HTB-57)): 58.1 ± 1.8 µg/mL (≈ 125 µM) | IC50 at 72 h (MTT cytotoxicity assay; MCF-7 breast adenocarcinoma cells (ATCC HTB-22)): 60.4 ± 1.6 µg/mL (≈ 130 µM)

CCOC(=O)c1c(C)[nH]c2c3c(c(O)cc12)C1CC2C3(C=C1C(C)C)CCC1C(C)(C(=O)O)CCCC12C (centres unmarked) [Compound 42, 1-Hydroxy-13-isopropyl-1′-(ethoxycarbonyl)-7,10a,2′-trimethyl-5,6,6b,7,8,9,10,10a, 10b,11,12,13-dodecahydro-12,4b-ethenophenanthro-[2,1-g]indole-7-carboxylic acid]
melting point: 131 to 133 °C | IC50 [7, 9]: 2.52 ± 0.34 µM | α-GLy inhibitory activity, in words [7]: very good activity

CCOC(=O)c1c(C)[nH]c2c3c(c(O)cc12)[C@H]1C[C@@H]2[C@@]4(C)CCC[C@@](C)(C(=O)OC)[C@@H]4CC[C@@]32C=C1C(C)C [Compound 43, Methyl 1-Hydroxy-13-Isopropyl-1′-(Ethoxycarbonyl)-7,10a,2′-Trimethyl-5,6,6b,7,8,9,10,10a,10b,11,12,13-Dodecahydro-12,4b-Ethenophenanthro-[2,1-g]indole-7-Carboxylate]
IC50 [7, 9]: > 255 µM

Cc1[nH]c2c3c(c(O)cc2c1C#N)[C@H]1C[C@@H]2[C@@]4(C)CCC[C@@](C)(C(=O)O)[C@@H]4CC[C@@]32C=C1C(C)C [Compound 44, 1′-Cyano-1-hydroxy-13-isopropyl-7,10a,2′-trimethyl-5,6,6b,7,8,9,10,10a,10b,11,12,13-dodecahydro-12,4b-ethenophenanthro [2,1-g]indole-7-carboxylic acid]
melting point: 127 to 129 °C | IC50 [7, 9]: 68.22 ± 0.03 µM | α-GLy inhibitory activity, in words [7]: very good activity

C#CCOC(=O)C1(C)CCCC2(C)C1CCC13C=C(C(C)C)C(CC12)c1c(O)cc2c(C(=O)OCC)c(C)[nH]c2c13 (centres unmarked) [Compound 46, Ethyl 7-propynyl 1-hydroxy-13-isopropyl-7,10a,2′-trimethyl-5,6,6b,7,8,9,10,10a,10b, 11,12,13-dodecahydro-12,4b-ethenophenanthro [2,1-g]indole-7,1′-dicarboxylate]
melting point: 98 to 100 °C | IC50 [7, 9]: > 255 µM
